From paper PMC6271228, “Diethyl 2-(Phenylcarbamoyl)phenyl Phosphorothioates: Synthesis, Antimycobacterial Activity and Cholinesterase Inhibition” (Molecules, 2014)
Converted amounts (≈) assume the structure as drawn. Where two headings read alike, the source gives them in different places.

Tests used:
[1] = system: M. kansasii 6509/96 (clinically isolated); assay: microbe, parasite or virus in culture; type: cell-based; conditions: Mycobacterium kansasii, 37 °C
AChE from electric eel = target: T1, AChE from electric eel (Electrophorus electricus, UniProt O42275); assay: AChE inhibition, modified Ellman's method; type: biochemical, Electrophorus electricus L.
T1 construct: Acetylcholinesterase was obtained from electric eel (Electrophorus electricus L.); from tissue; host or cells: electric eel (Electrophorus electricus L.)
T1 sequence (O42275 24-633): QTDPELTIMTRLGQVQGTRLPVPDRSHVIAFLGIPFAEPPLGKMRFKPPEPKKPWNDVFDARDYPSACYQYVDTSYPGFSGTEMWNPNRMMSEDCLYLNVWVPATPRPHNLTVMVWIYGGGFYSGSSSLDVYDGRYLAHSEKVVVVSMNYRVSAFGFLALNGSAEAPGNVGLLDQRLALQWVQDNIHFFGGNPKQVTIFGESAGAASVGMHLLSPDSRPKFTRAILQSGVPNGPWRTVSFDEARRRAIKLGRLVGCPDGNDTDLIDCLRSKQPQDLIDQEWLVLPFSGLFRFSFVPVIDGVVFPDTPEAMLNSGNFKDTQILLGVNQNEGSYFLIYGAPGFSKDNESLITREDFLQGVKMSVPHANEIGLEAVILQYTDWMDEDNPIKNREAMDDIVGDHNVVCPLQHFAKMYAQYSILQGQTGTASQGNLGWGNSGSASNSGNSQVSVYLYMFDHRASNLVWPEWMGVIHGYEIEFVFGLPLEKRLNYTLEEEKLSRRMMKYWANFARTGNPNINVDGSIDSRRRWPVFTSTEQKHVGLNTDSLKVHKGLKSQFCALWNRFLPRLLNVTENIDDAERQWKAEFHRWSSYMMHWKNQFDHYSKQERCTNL
Description: (§1) The ability of the tested compounds to inhibit AChE from electric eel (Electrophorus electricus L.) and BChE from equine serum was screened in vitro using modified Ellman’s method for the evaluation of cholinesterase activity. […] […]. These two standards were chosen due to their different structures. […]. The choice of these drugs with different mechanism of action can provide relevant results. All tested compounds expressed a good inhibitory activity with IC50s in low micromolar values.
(§2) The IC50 values were determined using the spectrophotometric Ellman’s method, which is a simple, rapid and direct method to determine the SH and -S-S- group content in proteins. This method is widely used for cholinesterase activity evaluation and screening of the efficiency of cholinesterase inhibitors. Cholinesterase activity is measured indirectly by quantifying the concentration of 5-thio-2-nitrobenzoic acid (TNB) ion formed in the reaction between the thiol reagent 5,5'-dithiobis-2-nitrobenzoic acid (DTNB) and thiocholine, a product of substrate hydrolysis by cholinesterase (i.e., acetylthiocholine, ATCh). All the tested compounds were dissolved in dimethyl sulfoxide (concentration 0.01 M) and then diluted in demineralised water (concentration 0.001 M and 0.0001 M). The Ellman’s method is slightly modified according to Zdrazilova et al.. Acetylcholinesterase was obtained from electric eel (Electrophorus electricus L.) and butyrylcholinesterase from equine serum.

BChE from equine serum = target: T2, BChE from equine serum (Equus caballus, UniProt P81908); assay: BChE inhibition, modified Ellman's method; type: biochemical
T2 construct: butyrylcholinesterase from equine serum; from tissue; host or cells: equine serum
T2 sequence (P81908 whole entry): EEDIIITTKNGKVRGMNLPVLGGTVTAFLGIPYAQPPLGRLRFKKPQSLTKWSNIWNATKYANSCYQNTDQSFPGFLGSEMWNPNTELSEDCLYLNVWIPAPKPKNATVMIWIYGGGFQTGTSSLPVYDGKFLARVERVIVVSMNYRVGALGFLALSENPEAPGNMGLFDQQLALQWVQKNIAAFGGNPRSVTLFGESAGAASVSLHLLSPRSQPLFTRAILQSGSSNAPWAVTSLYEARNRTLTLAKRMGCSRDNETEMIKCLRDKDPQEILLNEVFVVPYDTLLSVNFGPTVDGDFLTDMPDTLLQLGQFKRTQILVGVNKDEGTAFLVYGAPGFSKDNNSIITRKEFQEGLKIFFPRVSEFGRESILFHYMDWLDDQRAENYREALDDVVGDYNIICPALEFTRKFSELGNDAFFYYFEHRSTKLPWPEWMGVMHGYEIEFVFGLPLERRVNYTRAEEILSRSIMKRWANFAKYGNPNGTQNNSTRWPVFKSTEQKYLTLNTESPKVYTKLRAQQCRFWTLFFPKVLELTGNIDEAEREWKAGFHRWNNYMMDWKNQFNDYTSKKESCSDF
Description: as §1, §2

[2] = system: Mycobacterium tuberculosis My 331/88 (H37Rv); assay: microbe, parasite or virus in culture; type: cell-based
M. avium My 330/88 = assay: microbe, parasite or virus in culture; type: cell-based, Mycobacterium avium; conditions: for MIC: Mycobacterium avium, 37 °C
M. kansasii My 235/80 = assay: microbe, parasite or virus in culture; type: cell-based, Mycobacterium kansasii; conditions: for MIC: Mycobacterium kansasii, 37 °C; for MICs for M. kansasii 235/80: all time points
[3] = 168 h, 7 d, read-out: MIC M. kansasii 6509/96 7 d
[4] = 336 h, 14 d, read-out: MIC M. kansasii 6509/96 14 d
[5] = 504 h, 21 d, read-out: MIC M. kansasii 6509/96 21 d
[6] = 336 h, 14 d, 37 °C, read-out: MIC Mtb 331/88 (H37Rv) 14 d
[7] = 504 h, 21 d, 37 °C, read-out: MIC Mtb 331/88 (H37Rv) 21 d
[8] = MY330/88, 336 h, 14 d, read-out: MIC M. avium 330/88 14 d
[9] = MY330/88, 504 h, 21 d, read-out: MIC M. avium 330/88 21 d
[10] = MY235/80, 168 h, 7 d, read-out: MIC M. kansasii 235/80 7 d
[11] = MY235/80, 336 h, 14 d, read-out: MIC M. kansasii 235/80 14 d
[12] = MY235/80, 504 h, 21 d, read-out: MIC M. kansasii 235/80 21 d

CCOP(=S)(OCC)Oc1ccc(Br)cc1C(=O)Nc1ccc(C(F)(F)F)cc1 [1i, O-(4-Bromo-2-{[4-(trifluoromethyl)phenyl]carbamoyl}phenyl) O,O-diethyl phosphorothioate]
MIC [1, 3]: 32 µM (≈ 16.4 µg/mL)
MIC [1, 4]: 62.5 µM (≈ 32 µg/mL)
MIC [1, 5]: 125 µM (≈ 64 µg/mL)
IC50 (AChE from electric eel): 11.2 ± 0.02 µM
IC50 (BChE from equine serum): 20.2 ± 1.6 µM
MIC [2, 6]: 8 µM (≈ 4.1 µg/mL)
MIC [2, 7]: 8 µM (≈ 4.1 µg/mL)
MIC ([2]; read-out: MIC against Mtb): 8 µM (≈ 4.1 µg/mL)
MIC (M. avium My 330/88; [8]): 125 µM (≈ 64 µg/mL)
MIC (M. avium My 330/88; [9]): 125 µM (≈ 64 µg/mL)
MIC values against M. avium (M. avium My 330/88; all MIC values (14 and 21 d)): ≤ 250 µM
MIC (M. kansasii My 235/80; [10]): 32 µM (≈ 16.4 µg/mL)
MIC (M. kansasii My 235/80; [11]): 62.5 µM (≈ 32 µg/mL)
MIC (M. kansasii My 235/80; [12]): 125 µM (≈ 64 µg/mL)
MICs for M. kansasii 235/80 (M. kansasii My 235/80): ≤ 250 µM

CCOP(=S)(OCC)Oc1ccc(Cl)cc1C(=O)Nc1cccc(Cl)c1 [1j, O-{4-Chloro-2-[(3-chlorophenyl)carbamoyl]phenyl} O,O-diethyl phosphorothioate]
MIC [1, 3]: 250 µM (≈ 109 µg/mL)
MIC [1, 4]: 500 µM (≈ 217 µg/mL)
MIC [1, 5]: 500 µM (≈ 217 µg/mL)
IC50 (AChE from electric eel): 9.97 ± 0.24 µM
IC50 (BChE from equine serum): 14.8 ± 0.15 µM
MIC [2, 6]: 32 µM (≈ 13.9 µg/mL)
MIC [2, 7]: 62.5 µM (≈ 27.1 µg/mL)
MIC (M. avium My 330/88; [8]): > 500 µM
MIC (M. avium My 330/88; [9]): > 500 µM
MIC (M. kansasii My 235/80; [10]): 250 µM (≈ 109 µg/mL)
MIC (M. kansasii My 235/80; [11]): 250 µM (≈ 109 µg/mL)
MIC (M. kansasii My 235/80; [12]): 500 µM (≈ 217 µg/mL)

CCOP(=S)(OCC)Oc1ccc(Cl)cc1C(=O)Nc1ccc(Cl)cc1 [1k, O-{4-Chloro-2-[(4-chlorophenyl)carbamoyl]phenyl} O,O-diethyl phosphorothioate]
MIC [1, 3]: 62.5 µM (≈ 27.1 µg/mL)
MIC [1, 4]: 125 µM (≈ 54.3 µg/mL)
MIC [1, 5]: 125 µM (≈ 54.3 µg/mL)
IC50 (AChE from electric eel): 9.78 ± 0.11 µM
IC50 (BChE from equine serum): 12.7 ± 0.1 µM
MIC [2, 6]: 32 µM (≈ 13.9 µg/mL)
MIC [2, 7]: 32 µM (≈ 13.9 µg/mL)
MIC (M. avium My 330/88; [8]): 500 µM (≈ 217 µg/mL)
MIC (M. avium My 330/88; [9]): 500 µM (≈ 217 µg/mL)
MIC (M. kansasii My 235/80; [10]): 32 µM (≈ 13.9 µg/mL)
MIC (M. kansasii My 235/80; [11]): 62.5 µM (≈ 27.1 µg/mL)
MIC (M. kansasii My 235/80; [12]): 62.5 µM (≈ 27.1 µg/mL)
MICs for M. kansasii 235/80 (M. kansasii My 235/80): ≤ 250 µM

CCOP(=S)(OCC)Oc1ccc(Cl)cc1C(=O)Nc1ccc(Cl)c(Cl)c1 [1l, O-{4-Chloro-2-[(3,4-dichlorophenyl)carbamoyl]phenyl} O,O-diethyl phosphorothioate]
MIC [1, 3]: 125 µM (≈ 58.6 µg/mL)
MIC [1, 4]: 250 µM (≈ 117 µg/mL)
MIC [1, 5]: 250 µM (≈ 117 µg/mL)
IC50 (AChE from electric eel): 9.33 ± 0.11 µM
IC50 (BChE from equine serum): 17.4 ± 0.5 µM
MIC [2, 6]: 8 µM (≈ 3.75 µg/mL)
MIC [2, 7]: 8 µM (≈ 3.75 µg/mL)
MIC ([2]; read-out: MIC against Mtb): 8 µM (≈ 3.75 µg/mL)
MIC (M. avium My 330/88; [8]): > 500 µM
MIC (M. avium My 330/88; [9]): > 500 µM
MIC (M. kansasii My 235/80; [10]): 125 µM (≈ 58.6 µg/mL)
MIC (M. kansasii My 235/80; [11]): 250 µM (≈ 117 µg/mL)
MIC (M. kansasii My 235/80; [12]): 500 µM (≈ 234 µg/mL)

CCOP(=S)(OCC)Oc1ccc(Cl)cc1C(=O)Nc1cccc(Br)c1 [1m, O-{2-[(3-Bromophenyl)carbamoyl]-4-chlorophenyl} O,O-diethyl phosphorothioate]
MIC [1, 3]: 125 µM (≈ 59.8 µg/mL)
MIC [1, 4]: 500 µM (≈ 239 µg/mL)
MIC [1, 5]: 500 µM (≈ 239 µg/mL)
IC50 (AChE from electric eel): 14.1 ± 0.2 µM
IC50 (BChE from equine serum): 15.1 ± 1.3 µM
MIC [2, 6]: 16 µM (≈ 7.66 µg/mL)
MIC [2, 7]: 16 µM (≈ 7.66 µg/mL)
MIC (M. avium My 330/88; [8]): 500 µM (≈ 239 µg/mL)
MIC (M. avium My 330/88; [9]): 500 µM (≈ 239 µg/mL)
MIC (M. kansasii My 235/80; [10]): 125 µM (≈ 59.8 µg/mL)
MIC (M. kansasii My 235/80; [11]): 500 µM (≈ 239 µg/mL)
MIC (M. kansasii My 235/80; [12]): > 500 µM

CCOP(=S)(OCC)Oc1ccc(Cl)cc1C(=O)Nc1ccc(Br)cc1 [1n, O-{2-[(4-Bromophenyl)carbamoyl]-4-chlorophenyl} O,O-diethyl phosphorothioate]
MIC [1, 3]: 250 µM (≈ 120 µg/mL)
MIC [1, 4]: 500 µM (≈ 239 µg/mL)
MIC [1, 5]: 500 µM (≈ 239 µg/mL)
IC50 (AChE from electric eel): 9.32 ± 0.06 µM
IC50 (BChE from equine serum): 15.1 ± 0.1 µM
MIC [2, 6]: 32 µM (≈ 15.3 µg/mL)
MIC [2, 7]: 32 µM (≈ 15.3 µg/mL)
MIC (M. avium My 330/88; [8]): 500 µM (≈ 239 µg/mL)
MIC (M. avium My 330/88; [9]): 500 µM (≈ 239 µg/mL)
MIC (M. kansasii My 235/80; [10]): 250 µM (≈ 120 µg/mL)
MIC (M. kansasii My 235/80; [11]): 500 µM (≈ 239 µg/mL)
MIC (M. kansasii My 235/80; [12]): 500 µM (≈ 239 µg/mL)

NNC(=O)c1ccncc1 [INH, isoniazid, reference compound]
MIC [1, 3]: 2 to 4 µM (≈ 0.274 to 0.549 µg/mL)
MIC [1, 4]: 4 µM (≈ 0.549 µg/mL)
MIC [1, 5]: 4 to 8 µM (≈ 0.549 to 1.1 µg/mL)
MIC [2, 6]: 0.5 to 1 µM (≈ 0.0686 to 0.137 µg/mL)
MIC [2, 7]: 1 µM (≈ 0.137 µg/mL)
MIC (M. avium My 330/88; [8]): > 250 µM
MIC (M. avium My 330/88; [9]): > 250 µM
MIC (M. kansasii My 235/80; [10]): > 250 µM
MIC (M. kansasii My 235/80; [11]): > 250 µM
MIC (M. kansasii My 235/80; [12]): > 250 µM

Nc1ccc(C(=O)O)c(O)c1 [PAS, para-aminosalicylic acid, reference compound]
MIC [1, 3]: 32 µM (≈ 4.9 µg/mL)
MIC [1, 4]: 125 µM (≈ 19.1 µg/mL)
MIC [1, 5]: 500 µM (≈ 76.6 µg/mL)
MIC [2, 6]: 62.5 µM (≈ 9.57 µg/mL)
MIC [2, 7]: 62.5 µM (≈ 9.57 µg/mL)
MIC (M. avium My 330/88; [8]): 32 µM (≈ 4.9 µg/mL)
MIC (M. avium My 330/88; [9]): 125 µM (≈ 19.1 µg/mL)
MIC (M. kansasii My 235/80; [10]): 125 µM (≈ 19.1 µg/mL)
MIC (M. kansasii My 235/80; [11]): 1000 µM (≈ 153 µg/mL)
MIC (M. kansasii My 235/80; [12]): > 1000 µM
